What was measured:
in vivo [1] = conditions: ICR, mouse, sc
Source text: ICR mice were used to evaluate the pharmacokinetics in mice of the acylated oxyntomodulin peptide analogs according to the present invention.

in vivo [2] = conditions: cynomolgus monkey, sc
Source text: Cynomolgus monkeys were used to evaluate the pharmacokinetics in monkeys of the acylated oxyntomodulin peptide analogs according to the present invention.

GLP-1 receptor = GLP-1 receptor (Homo sapiens, UniProt P43220); assay: Human GLP-1 receptor activation assay (CRE-luciferase); format: cell-based; design: host or cells: CHO-K1; conditions: for Emax: CHO-K1, 6 h, read-out: GLP-1 receptor Maximum activation (% vs GLP-1); for EC50: CHO-K1 cells transiently transfected, luciferase, 6 hours, 0.1% BSA
Method: (§1) Then, the resulting increased luciferase activity was evaluated as a measurement of the effect on each receptor activation.
(§2) For positive control, endogenous ligand GLP-1 or glucagon was used for respective evaluation. The above-mentioned acylated oxyntomodulin peptide analogs of Comparative Example 8-12 were synthesized and used as comparative examples.
(§3) After 3 hours of transfection, medium was exchanged to Alpha Minimal Essential Medium (α-MEM) comprising 10% fetal bovine serum (FBS). Next day, the medium was exchanged to α-MEM comprising the acylated oxyntomodulin peptide analog of the present invention and 0.1% bovine serum albumin (BSA). After 6 hours, dual luciferase assay reagent (Promega) was added in the same amount as the medium in which the cells were submerged, and firefly luciferase and Renilla luciferase activities were successively measured. Firefly luciferase activity values were corrected against Renilla luciferase activity to yield transfection efficiency.

glucagon receptor = glucagon receptor (Homo sapiens, UniProt P47871); assay: Human glucagon receptor activation assay (CRE-luciferase); format: cell-based; design: host or cells: CHO-K1; conditions: CHO-K1 cells transiently transfected; for Emax: 6 h, relative to glucagon, read-out: GCG receptor Maximum activation (% vs GCG); for EC50: 6 hours, 0.1% BSA, read-out: GCG receptor EC50
glucagon receptor, sequence (P47871 26-477): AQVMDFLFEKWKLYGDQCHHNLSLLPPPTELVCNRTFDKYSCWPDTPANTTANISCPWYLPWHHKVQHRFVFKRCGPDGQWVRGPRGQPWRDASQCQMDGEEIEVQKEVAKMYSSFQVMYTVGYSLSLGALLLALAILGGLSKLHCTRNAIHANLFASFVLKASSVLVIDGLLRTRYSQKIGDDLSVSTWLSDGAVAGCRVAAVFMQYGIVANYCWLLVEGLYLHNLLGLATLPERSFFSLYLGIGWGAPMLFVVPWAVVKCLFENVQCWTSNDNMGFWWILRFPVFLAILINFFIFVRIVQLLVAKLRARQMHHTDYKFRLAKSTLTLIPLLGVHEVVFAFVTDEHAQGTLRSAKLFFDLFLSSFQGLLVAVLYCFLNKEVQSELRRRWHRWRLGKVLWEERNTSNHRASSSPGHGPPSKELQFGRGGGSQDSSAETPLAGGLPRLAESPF
Method: as §1, §2, §3

[3] = system: overweight and obese patients; conditions: subcutaneously for 4 weeks, 3 times per day; cited from earlier work

GLP-1 receptor, sequence (P43220 24-463): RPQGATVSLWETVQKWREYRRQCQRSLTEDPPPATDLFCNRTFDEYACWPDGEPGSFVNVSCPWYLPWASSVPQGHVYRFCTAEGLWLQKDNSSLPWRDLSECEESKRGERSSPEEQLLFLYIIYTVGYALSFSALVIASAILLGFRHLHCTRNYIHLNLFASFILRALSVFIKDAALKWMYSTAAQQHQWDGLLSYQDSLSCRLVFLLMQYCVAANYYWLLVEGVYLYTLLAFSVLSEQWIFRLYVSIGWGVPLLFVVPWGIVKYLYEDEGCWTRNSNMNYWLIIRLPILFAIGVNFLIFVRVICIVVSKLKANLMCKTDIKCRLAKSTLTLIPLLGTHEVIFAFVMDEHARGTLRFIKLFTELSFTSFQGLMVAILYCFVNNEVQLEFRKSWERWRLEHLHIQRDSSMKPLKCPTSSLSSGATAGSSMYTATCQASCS

| Compound | half-life (in vivo [1]; Mouse PK (S.C. half-life)) [h] | half-life (in vivo [1]; half-life in mice) [h] | half-life (in vivo [2]; Monkey PK (S.C. half-life)) [h] | half-life (in vivo [2]; monkey PK half-life) [h] | Emax (GLP-1 receptor) [%] | EC50 (GLP-1 receptor) [nM] | Emax (glucagon receptor) [%] | EC50 (glucagon receptor) [nM] | body weight loss on average [3] [kg] |
| --- | --- | --- | --- | --- | --- | --- | --- | --- | --- |
| CCCCCCCCCCCCCCCCCC(=O)N[C@@H](CCC(=O)NCCOCCOCC(=O)NCCOCCOCC(=O)NCCCC[C@H](NC(=O)[C@H](CC(=O)O)NC(=O)[C@H](CO)NC(=O)[C@@H](NC(=O)[C@H](Cc1ccccc1)NC(=O)[C@@H](NC(=O)CNC(=O)[C@H](CCC(N)=O)NC(=O)C(C)(C)NC(=O)[C@@H](N)Cc1c[nH]cn1)[C@@H](C)O)[C@@H](C)O)C(=O)N[C@@H](CO)C(=O)N[C@@H](CCCCN)C(=O)N[C@@H](Cc1ccc(O)cc1)C(=O)N[C@@H](CC(C)C)C(=O)N[C@@H](CC(=O)O)C(=O)NC(C)(C)C(=O)N[C@@H](CCCNC(=N)N)C(=O)N[C@@H](CCCNC(=N)N)C(=O)N[C@@H](C)C(=O)N[C@@H](CCC(N)=O)C(=O)N[C@@H](CC(=O)O)C(=O)N[C@@H](Cc1ccccc1)C(=O)N[C@H](C(=O)N[C@@H](CCC(N)=O)C(=O)N[C@@H](Cc1c[nH]c2ccccc12)C(=O)N[C@@H](CC(C)C)C(=O)N[C@@H](CCSC)C(=O)N[C@@H](CC(N)=O)C(=O)N[C@H](C(=O)N[C@@H](CCCCN)C(=O)N[C@@H](CCC(=O)O)C(=O)N[C@@H](Cc1ccc(O)cc1)C(=O)N[C@@H](CCC(=O)O)C(=O)N[C@@H](CCCCNC(=O)CCCCCCCCCCCCC(=O)O)C(=O)N[C@@H](CCC(=O)O)C(=O)N[C@@H](Cc1ccc(O)cc1)C(=O)N[C@@H](CCC(=O)O)C(=O)O)[C@@H](C)O)C(C)C)C(=O)O [Compound 1] | > 6 | > 6 | 12 to 18 | > 12 | 102 | < 0.1 | 107 | < 0.1 |  |
| CCCCCCCCCCCCCCCCCC(=O)N[C@@H](CCC(=O)NCCOCCOCC(=O)NCCOCCOCC(=O)NCCCC[C@H](NC(=O)[C@H](CC(=O)O)NC(=O)[C@H](CO)NC(=O)[C@@H](NC(=O)[C@H](Cc1ccccc1)NC(=O)[C@@H](NC(=O)CNC(=O)[C@H](CCC(N)=O)NC(=O)C(C)(C)NC(=O)[C@@H](N)Cc1c[nH]cn1)[C@@H](C)O)[C@@H](C)O)C(=O)N[C@@H](CO)C(=O)N[C@@H](CCCCN)C(=O)N[C@@H](Cc1ccc(O)cc1)C(=O)N[C@@H](CC(C)C)C(=O)N[C@@H](CC(=O)O)C(=O)NC(C)(C)C(=O)N[C@@H](CCCNC(=N)N)C(=O)N[C@@H](CCCNC(=N)N)C(=O)N[C@@H](C)C(=O)N[C@@H](CCC(N)=O)C(=O)N[C@@H](CC(=O)O)C(=O)N[C@@H](Cc1ccccc1)C(=O)N[C@H](C(=O)N[C@@H](CCC(N)=O)C(=O)N[C@@H](Cc1c[nH]c2ccccc12)C(=O)N[C@@H](CC(C)C)C(=O)N[C@@H](CCSC)C(=O)N[C@@H](CC(N)=O)C(=O)N[C@H](C(=O)N[C@@H](CCCCN)C(=O)N[C@@H](CCC(=O)O)C(=O)N[C@@H](Cc1ccc(O)cc1)C(=O)N[C@@H](CCC(=O)O)C(=O)N[C@@H](CCCCNC(=O)CCCCCCCCCCCCCCC(=O)O)C(=O)N[C@@H](CCC(=O)O)C(=O)N[C@@H](Cc1ccc(O)cc1)C(=O)N[C@@H](CCC(=O)O)C(=O)O)[C@@H](C)O)C(C)C)C(=O)O [Compound 2] | > 6 | > 6 | 12 to 18 | > 12 | 104 | 0.1 to 1 | 100 | 0.1 to 1 |  |
| CCCCCCCCCCCCCCCCCC(=O)N[C@@H](CCC(=O)NCCOCCOCC(=O)NCCOCCOCC(=O)NCCCC[C@H](NC(=O)[C@H](CC(=O)O)NC(=O)[C@H](CO)NC(=O)[C@@H](NC(=O)[C@H](Cc1ccccc1)NC(=O)[C@@H](NC(=O)CNC(=O)[C@H](CCC(N)=O)NC(=O)C(C)(C)NC(=O)[C@@H](N)Cc1c[nH]cn1)[C@@H](C)O)[C@@H](C)O)C(=O)N[C@@H](CO)C(=O)N[C@@H](CCCCN)C(=O)N[C@@H](Cc1ccc(O)cc1)C(=O)N[C@@H](CC(C)C)C(=O)N[C@@H](CC(=O)O)C(=O)NC(C)(C)C(=O)N[C@@H](CCCNC(=N)N)C(=O)N[C@@H](CCCNC(=N)N)C(=O)N[C@@H](C)C(=O)N[C@@H](CCC(N)=O)C(=O)N[C@@H](CC(=O)O)C(=O)N[C@@H](Cc1ccccc1)C(=O)N[C@H](C(=O)N[C@@H](CCC(N)=O)C(=O)N[C@@H](Cc1c[nH]c2ccccc12)C(=O)N[C@@H](CC(C)C)C(=O)N[C@@H](CCSC)C(=O)N[C@@H](CC(N)=O)C(=O)N[C@H](C(=O)N[C@@H](CCCCN)C(=O)N[C@@H](CCC(=O)O)C(=O)N[C@@H](Cc1ccc(O)cc1)C(=O)N[C@@H](CCC(=O)O)C(=O)N[C@@H](CCCCNC(=O)CCCCCCCCCCCCCCCCC(N)=O)C(=O)N[C@@H](CCC(=O)O)C(=O)N[C@@H](Cc1ccc(O)cc1)C(=O)N[C@@H](CCC(=O)O)C(=O)O)[C@@H](C)O)C(C)C)C(=O)O [Compound 7] | > 6 | > 6 | > 24 | > 24 | 90.8 | < 0.1 | 100 | < 0.1 |  |
| CCCCCCCCCCCCCCCCCC(=O)N[C@@H](CCC(=O)NCCOCCOCC(=O)NCCOCCOCC(=O)NCCCC[C@H](NC(=O)[C@H](CC(=O)O)NC(=O)[C@H](CO)NC(=O)[C@@H](NC(=O)[C@H](Cc1ccccc1)NC(=O)[C@@H](NC(=O)CNC(=O)[C@H](CCC(N)=O)NC(=O)C(C)(C)NC(=O)[C@@H](N)Cc1c[nH]cn1)[C@@H](C)O)[C@@H](C)O)C(=O)N[C@@H](CO)C(=O)N[C@@H](CCCCN)C(=O)N[C@@H](Cc1ccc(O)cc1)C(=O)N[C@@H](CC(C)C)C(=O)N[C@@H](CC(=O)O)C(=O)NC(C)(C)C(=O)N[C@@H](CCCNC(=N)N)C(=O)N[C@@H](CCCNC(=N)N)C(=O)N[C@@H](C)C(=O)N[C@@H](CCC(N)=O)C(=O)N[C@@H](CC(=O)O)C(=O)N[C@@H](Cc1ccccc1)C(=O)N[C@H](C(=O)N[C@@H](CCC(N)=O)C(=O)N[C@@H](Cc1c[nH]c2ccccc12)C(=O)N[C@@H](CC(C)C)C(=O)N[C@@H](CCSC)C(=O)N[C@@H](CC(N)=O)C(=O)N[C@H](C(=O)N[C@@H](CCCCN)C(=O)O)[C@@H](C)O)C(C)C)C(=O)O [Compound 8] | < 6 |  |  |  | 99.3 | < 0.1 | 103 | < 0.1 |  |
| HSQGTFTSDYSKYLDSRRAQDFVQWLMNTKRNRNNIA (HSQGTFTSDKSKYLDSRRAQDFVQWLMNTKRNRNNIA; listed as Homo sapiens) [oxyntomodulin] |  |  |  |  |  |  |  |  | 2.3 |
